Measured values: patent US7915237B2, “Production of pure stereoisomers of tricyclo[5.2.1.02.6]-dec-9-yl-xanthogenate and medicaments therefrom” (Lumavita AG, priority 2001, dated 2011)

What was measured:
Herpes simplex virus 1 [1] = test: Inhibition of Herpes proliferation by measuring viral proliferation (plaque assay of supernatants); assay type: cell-based, Herpes simplex virus 1 in monkey kidney cells (Rita strain)
Description: The inhibition of the proliferation of Herpes by exo/exotricyclo[5.2.1.0^2.6]dec-9-yl-xanthogenate was determined by measuring viral proliferation. For this purpose, monkey kidneys cells (Rita strain) were seeded on Linbro plates. After 24 hours, 100 plaque-forming units of Herpes simplex virus 1 were added to each culture. After allowing for adsorption for one hour, fresh culture medium adjusted to pH 6.8 was added. Four cultures each were treated either with the pure exo/exo isomer or a mixture of isomers containing 83% of the exo/exo isomer using the following concentrations: 0, 5, 10 or 15 μg/ml. The virus concentrations in the supernatants of the cultures were determined after four days by means of plaque assays. The curves were used to determine the concentration at which viral proliferation was inhibited by 50% (IC50). An IC50 of 0.6 μg/ml was found for the exo/exo isomer. […] This means that the pure exo/exo isomer effected a 50% reduction of viral proliferation at a more than 10-fold lower concentration as compared to the mixture of isomers.

Herpes simplex virus 1 [2] = test: Inhibition of Herpes proliferation by measuring the cytopathogenic effect; assay type: cell-based, Herpes simplex virus 1 in monkey kidney cells (Rita strain); details: 50 PFU HSV-1, pH 6.8, microscopy after 6 days
Description: The inhibition of the proliferation of Herpes by exo/exo-tricyclo[5.2.1.0^2.6]dec-9-yl-xanthogenate was determined by measuring the cytopathogenic effect. For this purpose, monkey kidneys cells (Rita strain) were seeded on Linbro plates. After 24 hours, 50 plaque-forming units of Herpes simplex virus 1 were added to each culture. After allowing for adsorption for one hour, fresh culture medium adjusted to pH 6.8 was added. Four cultures each were treated either with the pure exo/exo isomer or a mixture of isomers containing 83% of the exo/exo isomer using the following concentrations: 0, 5, 10, 15 or 20 μg/ml. The cultures were analyzed by microscopy after 6 days. Untreated cultures were completely lysed as a result of virus proliferation (cytopathogenic effect).

concentration at which viral proliferation was inhibited by 50% (IC50) (Herpes simplex virus 1 [1]; 100 PFU HSV-1, pH 6.8, virus in supernatant after four days, from dose-response curve): 0.6 µg/mL
Compound: S=C(S)OC1CC2CC1C1CCCC21 (single isomer, unassigned) [exo/exo isomer, exo/exo-tricyclo[5.2.1.0^2.6]dec-9-yl-xanthogenate]
fold lower concentration for 50% reduction of viral proliferation as compared to the mixture of isomers (Herpes simplex virus 1 [1]; IC50 ratio versus mixture containing 83% exo/exo isomer): more than 10 fold
fold stronger antiviral effect than the mixture of isomers (Herpes simplex virus 1 [1]; summary statement, versus mixture of 83% exo/exo and 17% other isomers): 4-10 fold
cytopathogenic effect in treated cultures (Herpes simplex virus 1 [2]; 5, 10, 15 or 20 μg/ml): no evidence of a cytopathogenic effect
concentration at which proliferation of the virus was completely suppressed (no cytopathogenic effect) (Herpes simplex virus 1 [2]; tested 5-20 μg/ml): ≤ 5 µg/mL
